Values after ≈ are worked out from the molar mass of the structure shown.
Tests used:
physchem = details: water
[1] = Water solubility of salts with hydrophilic amines; details: as salts with hydrophilic amines

Row | Compound | solubility (physchem) | water solubility compared with the respective chlorin e6 salts [1]
1 | C=Cc1c(C)c2cc3nc(c(CC(=O)O)c4[nH]c(cc5nc(cc1[nH]2)C(C)=C5CC)c(C)c4C(=O)O)[C@@H](CCC(=O)O)[C@@H]3C [(7), chlorin e6] | > 5000 µg/mL | 
2 | C=Cc1c(C)c2cc3nc(c4c5[nH]c(cc6nc(cc1[nH]2)C(C)=C6CC)c(C)c5C(=O)OC4=O)[C@@H](CCC(=O)O)[C@@H]3C [(8), purpurin 18] |  | remarkably lower water solubility
3 | C=Cc1c(C)c2cc3nc(c(C(=O)O)c4[nH]c(cc5nc(cc1[nH]2)C(C)=C5CC)c(C)c4C(=O)O)[C@@H](CCC(=O)O)[C@@H]3C [(9), chlorin p6] |  | remarkably lower water solubility
4 | CCC1=C(C)c2cc3[nH]c(cc4nc(c5c6[nH]c(cc1n2)c(C)c6C(=O)C5)[C@@H](CCC(=O)O)[C@@H]4C)c(C)c3CC [(36), mesopyropheophorbide a] | 40 µg/mL (≈ 74.5 µM) | 
5 | pheophorbide a [(4)] |  | remarkably lower water solubility

Source: patent US6777402B2, “Water-soluble porphyrin derivatives for photodynamic therapy, their use and manufacture” (CeramOptec Industries, Inc., priority 2001, dated 2004)
